Consider 11 compounds from ChEMBL document CHEMBL1201862, “PubChem BioAssay data set” (2004).

What all share (assay): NCI-60 cell line screen, 48 h
Experiment [1] relates to SK-OV-3.
The test system of experiment [2] is HCC 2998.
The test system of experiment [3] is OVCAR-8.
Experiment [4] has as its system MCF7.
The subject of experiment [5] is MDA-MB-231.
Experiment [6] relates to M14.
Experiment [7] relates to NCI-H23.
The test system of experiment [8] is CAKI-1.
Experiment [9] has as its system SK-MEL-5.
Experiment [10] has as its system NCI-H460.
Experiment [11] has as its system PC-3.
The subject of experiment [12] is SW-620.
Experiment [13] relates to SNB-75.
Experiment [14] has as its system U-251.
For experiment [15], the system named is T47D.
The subject of experiment [16] is RXF 393.
Experiment [17] has as its system SK-MEL-28.
The test system of experiment [18] is SK-MEL-2.
The test system of experiment [19] is HOP-92.
Experiment [20] has as its system A498.

SMILES strings stand for the structures.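 Cells were grown in 96-well plates and exposed to each compound for 48 hours at five concentrations; endpoints were interpolated linearly between bracketing concentrations, or set to the highest concentration if not reached. At the GI50, growth is halved.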 Active and inactive are the calls of the source. Cut-off read from the data, not from the text of the source: active = GI50 up to about 1.1 µM and inactive = higher. Some results are limits rather than exact numbers.

On to `O=C1/C(=C/c2ccc([N+](=O)[O-])cc2)Oc2cc(O)ccc21`, for which the GI50 was 25.1 µM (inactive) in [1]; 34.6 µM (inactive) in [2]; 29.6 µM (inactive) in experiment [3]; 27.2 µM (inactive) in experiment [4]; 26.5 µM (inactive) in [5]; 43.1 µM (inactive) in experiment [6]. In addition, the GI50 in [7] is 42.1 µM (inactive); in [8] it was 23.6 µM (inactive); in experiment [9] it was 21 µM (inactive); in experiment [10], 31.5 µM (inactive); in experiment [11], 29.3 µM (inactive); in [12], 41 µM (inactive). Further, the GI50 was 32.2 µM (inactive) in experiment [13]; 28.1 µM (inactive) in [14]; 28.6 µM (inactive) in [15]; 45 µM (inactive) in experiment [16]; 41 µM (inactive) in experiment [17].
With `COc1cc(C2C3=C(COC3=O)Oc3cc4c(cc32)OCO4)cc(OC)c1O` (stereo not drawn), the GI50 in [1] was < 0.012 µM (active); in [2], < 0.0209 µM (active); in experiment [3] it was < 0.0152 µM (active); in experiment [4], < 0.01 µM (active); in experiment [5], < 0.0246 µM (active); in experiment [6] it was < 0.0112 µM (active). Also, the GI50 is 0.465 µM (active) in [7]; 0.0101 µM (active) in experiment [18]; < 0.01 µM (active) in experiment [8]; < 0.01 µM (active) in [9]; < 0.0139 µM (active) in [10]; < 0.01 µM (active) in experiment [11]. The GI50 in experiment [12] was 0.0124 µM (active); in [13], < 0.01 µM (active); in experiment [14], < 0.0134 µM (active); in experiment [15], 0.0157 µM (active); in experiment [16], < 0.01 µM (active); in experiment [17], < 0.01 µM (active).
`CC1(C)O[C@@H](CP(c2ccc3ccccc3c2)c2ccc3ccccc3c2)[C@H](CP(c2ccc3ccccc3c2)c2ccc3ccccc3c2)O1`: the GI50 was > 100 µM (inactive) in experiment [1]; > 100 µM (inactive) in experiment [2]; > 100 µM (inactive) in [3]; 72.3 µM (inactive) in experiment [4]; > 100 µM (inactive) in experiment [5]; > 100 µM (inactive) in [6]. Moreover, the GI50 in [7] is > 100 µM (inactive); in [18], > 100 µM (inactive); in experiment [8], > 100 µM (inactive); in experiment [9] it was 73.5 µM (inactive); in experiment [10] it was > 100 µM (inactive); in [11], 53.5 µM (inactive). For the same compound, the GI50 was > 100 µM (inactive) in experiment [12]; > 100 µM (inactive) in experiment [13]; > 100 µM (inactive) in experiment [14]; 78.2 µM (inactive) in experiment [15]; > 100 µM (inactive) in experiment [16]; > 100 µM (inactive) in experiment [17].
For the compound `O=C(c1ccccc1)c1ccc2[nH]c(-c3c(Cl)c(Cl)c(Cl)c(Cl)c3C(=O)N/N=C/c3ccc(Cl)cc3)nc2c1`, the GI50 is 41.1 µM (inactive) in [1]; 51.8 µM (inactive) in experiment [3]; 20.6 µM (inactive) in experiment [4]; 20.7 µM (inactive) in experiment [5]; 30.1 µM (inactive) in experiment [6]; 30.1 µM (inactive) in [7]. For the same compound, the GI50 was 29.4 µM (inactive) in [18]; 61.8 µM (inactive) in [8]; 43.6 µM (inactive) in experiment [19]; 17.2 µM (inactive) in experiment [9]; 37 µM (inactive) in [11]; 54.3 µM (inactive) in experiment [12]. Besides, the GI50 in [13] was 47 µM (inactive); in experiment [14], 44.1 µM (inactive); in experiment [15], 18.3 µM (inactive); in [16], 22.5 µM (inactive); in [17], 33 µM (inactive).
`CCCCCCCCCCCCCCCCOP(=O)(O)OCC(N)C(=O)O` (stereo not drawn): the GI50 in experiment [1] is 21.8 µM (inactive); in experiment [2] it was 15.1 µM (inactive); in experiment [3], 25.4 µM (inactive); in [5], 24.7 µM (inactive); in experiment [6] it was 24.8 µM (inactive); in experiment [7], 27 µM (inactive). In addition, the GI50 in experiment [20] was 19.8 µM (inactive); in experiment [18] it was 19.3 µM (inactive); in experiment [8], 13 µM (inactive); in [19] it was 19.5 µM (inactive); in experiment [9], 17.8 µM (inactive); in experiment [10], 17.1 µM (inactive). Moreover, the GI50 was 12 µM (inactive) in experiment [11]; 17 µM (inactive) in [12]; 25.4 µM (inactive) in experiment [13]; 12.9 µM (inactive) in [14]; 28.2 µM (inactive) in experiment [15]; 23.8 µM (inactive) in experiment [16]. Moreover, the GI50 in [17] was 43.1 µM (inactive).
Consider `O=C(O)/C=C/c1ccc(Oc2ccccc2C(=O)O)o1`, for which the GI50 in [1], in experiment [2], in experiment [3], in experiment [4], in experiment [5] and in [6] was > 10 µM (inactive) each time. Besides, the GI50 in [7], in [8], in experiment [19], in experiment [9], in experiment [11] and in [12] was > 10 µM (inactive) throughout. Further, the GI50 in [13], in experiment [14], in experiment [15] and in [17] was > 10 µM (inactive) throughout.
In the case of `Cc1ccc(N/N=C/C2=CC(C)(C)C(C#N)(C#N)C(O)=C2C#N)cc1`, the GI50 is 58.2 µM (inactive) in experiment [1]; 37.8 µM (inactive) in [2]; 38.4 µM (inactive) in [3]; > 100 µM (inactive) in experiment [4]; 44.6 µM (inactive) in experiment [5]; 49.4 µM (inactive) in [6]. Besides, the GI50 was 39.4 µM (inactive) in experiment [7]; 31.6 µM (inactive) in experiment [8]; 5.89 µM (inactive) in [19]; 40.7 µM (inactive) in experiment [9]; 24.6 µM (inactive) in [10]; 7.23 µM (inactive) in experiment [11]. Besides, the GI50 was 24.8 µM (inactive) in experiment [12]; 45.5 µM (inactive) in experiment [13]; 67.3 µM (inactive) in [15]; 33.2 µM (inactive) in experiment [16]; 85.5 µM (inactive) in experiment [17].
Turning to `O=[N+]([O-])/C(C(Cl)=C(Cl)Cl)=C(/Nc1ccccc1)SCc1ccccc1`, the GI50 in [1] was 52 µM (inactive); in experiment [2], 24.3 µM (inactive); in [3], 17.7 µM (inactive); in [5] it was 19.9 µM (inactive); in experiment [6], 16.9 µM (inactive); in [7] it was 20.1 µM (inactive). Moreover, the GI50 in experiment [20] was 25.9 µM (inactive); in experiment [18], 19.4 µM (inactive); in experiment [8], 31.9 µM (inactive); in [19] it was 31 µM (inactive); in experiment [9], 21.6 µM (inactive); in experiment [10], 19.8 µM (inactive). Further, the GI50 in experiment [11] was 24.5 µM (inactive); in [12], 26.7 µM (inactive); in experiment [14], 20.1 µM (inactive); in [15] it was 34.6 µM (inactive); in [16] it was 19.4 µM (inactive); in experiment [17], 20.4 µM (inactive).
Regarding `CCNC(=S)NNC(=O)c1ccccc1Nc1ccccc1C(=O)NNC(=S)NCC`, the GI50 in [1], in [2], in experiment [3], in experiment [4], in [5] and in experiment [6] was > 100 µM (inactive) each time. Also, the GI50 in [7], in experiment [18], in experiment [19], in experiment [9], in experiment [10] and in experiment [11] was > 100 µM (inactive) each time. The GI50 in experiment [12], in experiment [13], in experiment [14], in [15] and in experiment [17] was > 100 µM (inactive) each time.
For the compound `COc1ccc(N2C(=O)C(=O)N(c3ccccc3[N+](=O)[O-])C2=S)cc1`, the GI50 was 25.1 µM (inactive) in [1]; 36.1 µM (inactive) in experiment [2]; 21.1 µM (inactive) in experiment [3]; 20.4 µM (inactive) in [5]; 21 µM (inactive) in experiment [7]; 27 µM (inactive) in [20]. Further, the GI50 in experiment [18] is 14.6 µM (inactive); in [8], 40 µM (inactive); in experiment [19] it was 19.6 µM (inactive); in [9] it was 17.6 µM (inactive); in [10], 34.3 µM (inactive); in experiment [11], 40.5 µM (inactive). The GI50 in experiment [12] is 37.9 µM (inactive); in [13] it was 27.1 µM (inactive); in experiment [14], 37.8 µM (inactive); in experiment [15], 22.6 µM (inactive); in experiment [16] it was 18 µM (inactive); in experiment [17], 33 µM (inactive).
As to `CC(=O)OCC1OC(n2c(C)c(/N=N/c3ccc(Cl)cc3)c(C)c(C#N)c2=S)C(OC(C)=O)C(OC(C)=O)C1OC(C)=O` (stereo not drawn), the GI50 in [1] is 36.3 µM (inactive); in experiment [2], > 100 µM (inactive); in [4], > 100 µM (inactive); in experiment [5], 65.2 µM (inactive); in [6], > 100 µM (inactive); in experiment [7], > 100 µM (inactive). For the same compound, the GI50 in experiment [18] is 34.2 µM (inactive); in experiment [8] it was 50.8 µM (inactive); in [19], 0.205 µM (active); in [9], 64.3 µM (inactive); in experiment [10], > 100 µM (inactive); in [11], > 100 µM (inactive). For the same compound, the GI50 was > 100 µM (inactive) in experiment [12]; 20.1 µM (inactive) in experiment [13]; 28.1 µM (inactive) in [14]; > 100 µM (inactive) in experiment [15]; 18.2 µM (inactive) in experiment [16]; > 100 µM (inactive) in experiment [17].
